Results taken from patent US4606911A, “Pharmaceutical composition for the prevention of dental caries” (Rohto Pharmaceutical Co. Ltd., priority 1984, dated 1986).

What was measured:
[1] = test system: S. mutans OMZ 176 (serotype d); test: microbe, parasite or virus in culture; type: cell-based; settings: for inhibition at 10 µg/mL / inhibition at 20 µg/mL / inhibition at 30 µg/mL / inhibition at 50 µg/mL / inhibition at 100 µg/mL: Streptococcus mutans, read-out: Adherence-inhibiting activity (AIP); for adherence-inhibiting activity (in words): text statement
Method: The adherence-inhibiting activity of the triterpenes of the formula (I) was measured using an inner wall of a test tube in place of the surface of a tooth.
To 2.9 ml of BHI medium containing 5% sucrose in a test tube (i) are added 30 μl of a sample solution prepared by dissolving a compound of: the formula (I) in H2 O or dimethylsulfoxide (DMSO) and 100 μl of culture medium containing S. mutans OMZ 176 (serotype d) which was preincuvated at 37° C. for 24 hours in BHI medium, and the mixture is incubated at 37° C. for 20 hours, with the test tube being maintained at a slant of 30°. The test tube is revolved gently two or three times and the supernatant is transferred to another test tube (ii). To the first test tube (i) is added 3 ml of 50 mM phosphate buffer (pH 7.5), and the test tube is gently revolved two or three times. The resultant supernatant is transferred to the third test tube (iii). The test tubes (ii) and (iii) are each centrifuged and respective supernatants are discarded. To each of the test tubes (i), (ii) and (iii) is added 3 ml of 0.5M NaOH, and the test tubes are shaken to suspend bacterial cells. Absorbance of the resulting suspension is measured at 660 nm. The absorbances obtained with respect to the test tube (i), (ii) and (iii) are represented by Ab(i), Ab(ii) and Ab(iii), respectively. Ab(i) reflects the amount of the bacterial cells adhered to the wall of the test tube and Ab(ii) and Ab(iii) correspond to the amount of the bacterial cells not adhered to the wall.
The same procedure is repeated using 30 μl of distilled water or DMSO in place of the sample solution to obtain a control. The absorbance of the control is represented by Ab(Cont.).
Adherence percentage of bacteria is calculated from the following equation. [formula]
Adherence inhibitory percentage (AIP) is calculated using the adherence percentage according to the following equation. [formula]
The magnitude of adherence-inhibiting activity of each of the samples is shown, in Table 3, by the use of the following symbols: […]

[2] = test system: Streptococcus mutans OMZ 176; test: Antibacterial activity (MIC, growth in BHI medium); type: cell-based; settings: text statement
Method: To a test tube was charged 3.8 ml of Brain Heart Infusion (BHI) medium, and 100 μl of a sample solution containing oleanolic, ursolic or glycyrrhetic acid and 100 μl of pre-incubated culture of bacterium selected from those listed below were added thereto. The mixture was incubated at 37° C. and then allowed to stand over night. The extent of the growth of bacterium was observed after two or five days.
Streptococcus mutans OMZ 176

Compound | inhibition at 10 µg/mL [1] | inhibition at 20 µg/mL [1] | inhibition at 30 µg/mL [1] | inhibition at 50 µg/mL [1] | inhibition at 100 µg/mL [1] | adherence-inhibiting activity (in words) [1] | antibacterial activity to S. mutans (in words) [2]
CC1(C)CC[C@]2(C)CC=C3[C@]4(C)CC[C@H]5C(C)(C)[C@@H](O)CC[C@]5(C)[C@H]4CC[C@@]3(C)[C@@H]2C1 [Taraxerol, reference compound] | < 25% | < 25% | < 25% | < 25% | < 25% | could not be observed | could not be observed
Chikusetsusaponin V [Chikusetsusaponin V (e), reference compound] |  |  |  |  |  | could not be observed | could not be observed
COC(=O)[C@]12CCC(C)(C)C[C@H]1C1=CC[C@@H]3[C@@]4(C)CC[C@H](O)C(C)(C)[C@@H]4CC[C@@]3(C)[C@]1(C)CC2 [Methyl oleanolate (17-position) (a), Methyl oleanolate, reference compound] | < 25% | < 25% | < 25% | < 25% | < 25% |  | 
CC(=O)O[C@H]1CC[C@]2(C)[C@H]3CC=C4[C@@H]5CC(C)(C)CC[C@]5(C(=O)O)CC[C@@]4(C)[C@]3(C)CC[C@H]2C1(C)C [reference compound] | < 25% | < 25% | < 25% | 25 to 50% | 25 to 50% |  | 
CC1(C)[C@@H](O[C@H]2O[C@H](C(=O)O)[C@@H](O)[C@H](O)[C@H]2O[C@@H]2O[C@H](C(=O)O)[C@@H](O)[C@H](O)[C@H]2O)CC[C@]2(C)[C@H]3C(=O)C=C4[C@@H]5C[C@@](C)(C(=O)O)CC[C@]5(C)CC[C@@]4(C)[C@]3(C)CC[C@@H]12 [Glycyrrizic acid, reference compound] | < 25% | < 25% | < 25% | < 25% | < 25% | could not be observed | could not be observed
CC1(C)CC[C@]2(CO)CC[C@]3(C)C(=CC[C@@H]4[C@@]5(C)CC[C@H](O)C(C)(C)[C@@H]5CC[C@]43C)[C@@H]2C1 [Oleanolic acid (acid reductant) (b), reference compound] | < 25% | < 25% | < 25% | < 25% | < 25% |  | 
